Assay [1] has as its target T1, 5-HT4 receptor (Homo sapiens, UniProt Q13639).
T1 construct: gene HTR4
In words: [3H]-GR113808 radioligand competition, five-point inhibition curves; partial agonist in cAMP HTRF assay. In kind it is binding. A general note: In a radioligand displacement assay an active substance lowers the binding of a labelled ligand.

Assay [2] addresses T2, HA-tagged human 5-HT4 receptor (Homo sapiens, UniProt Q13639).
T2 construct: gene HTR4; HA-tagged, transiently expressed in COS-7 cells
In words: cell-based. The arrangement: cAMP production by HTRF in transiently transfected COS-7 cells, 10 min, with RO-20-1724. As to conditions: COS-7; read-out: Top AMPc. The protocol:
COS-7 cells were purchased from ATCC (ATCC CRL-1651; LGC […], Molsheim, France). They were grown in Dulbecco’s modified Eagle medium (DMEM) supplemented with 10% dialyzed fetal calf serum (dFCS) and antibiotics. The cells were transiently transfected with the plasmid encoding HA-tagged human 5-HT4 receptor, then seeded in 96-wells plate (35,000 cells/well). Approximately 24 hrs after transfection, the cells were washed once with 200 µL of HBS (20 mM HEPES; 150 mM NaCl; 4.2 mM KCl; 0.9 mM CaCl2; 0.5 mM MgCl2; 0.1% glucose; 0.1% BSA) and, after HBS removal, exposed to the indicated concentrations of 5-HT4R ligands in the presence of 0.1 mM of the phosphodiesterase inhibitor RO-20-1724, at 37 °C in 100 µL of HBS. After 10 min, the cells were then lysed by the addition of the same volume of Triton-X100 (0.1%) during 30 min at 37 °C. Quantification of the cAMP production was performed by HTRF by using the cAMP—HTRF Gs Dynamic kit (Perkin Elmer, Codolet, France) according to the manufacturer’s instructions. 2.2.4.

Assay [3] addresses T1, 5-HT4 receptor. Put plainly: [3H]-GR113808 radioligand displacement at two concentrations. In kind it is binding. As to conditions: read-out: 5-HT4R (1 × 10^-6 M).
Assay [4] concerns the target T1, 5-HT4 receptor. Put plainly: [3H]-GR113808 radioligand displacement at two concentrations; partial agonist reference in cAMP assay. In kind it is binding. As to conditions: read-out: 5-HT4R (1 × 10^-6 M).

T1 sequence (Q13639 whole entry): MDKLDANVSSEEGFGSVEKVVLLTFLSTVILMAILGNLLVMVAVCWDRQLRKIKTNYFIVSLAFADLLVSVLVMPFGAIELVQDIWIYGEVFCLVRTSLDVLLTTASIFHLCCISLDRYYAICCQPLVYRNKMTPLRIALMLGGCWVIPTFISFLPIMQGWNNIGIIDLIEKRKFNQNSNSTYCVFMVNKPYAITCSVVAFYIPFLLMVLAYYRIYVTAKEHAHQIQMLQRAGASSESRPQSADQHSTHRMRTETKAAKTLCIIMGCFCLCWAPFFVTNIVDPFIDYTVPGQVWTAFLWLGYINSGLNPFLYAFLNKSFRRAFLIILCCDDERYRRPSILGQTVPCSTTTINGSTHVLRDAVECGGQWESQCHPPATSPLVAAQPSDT
T2 sequence (Q13639 whole entry): as above

For orientation: Ki means the dissociation constant of the complex between target and ligand, obtained from inhibition or displacement. Low readings indicate higher affinity, high ones lower affinity. As to `COc1cc(N)c(Cl)cc1C(=O)CCC1CCN(CCNC(=O)c2cc(C(=O)NCCO)cc(C(=O)NCCO)c2)CC1` [compound 8, N^1-(2-{4-[3-(4-amino-5-chloro-2-methoxyphenyl)-3-oxopropyl]piperidin-1-yl}ethyl)-N^3,N^5-bis(2-hydroxyethyl)benzene-1,3,5-tricarboxamide], the Ki on 5-HT4 receptor [1] was 0.0426 ± 0.0041 µM. The Emax in assay [2] was found to be 48%.

Turning to `COc1cc(N)c(Cl)cc1C(=O)CCC1CCN(CCCNC(=O)c2cc(C(=O)NCCO)cc(C(=O)NCCO)c2)CC1` [compound 13, N^1-(3-(4-(3-(4-amino-5-chloro-2-methoxyphenyl)-3-oxopropyl)piperidin-1-yl)propyl)-N^3,N^5-bis(2-hydroxyethyl)benzene-1,3,5-tricarboxamide], the inhibition at 1 µM on 5-HT4 receptor [3] was found to be 82%.

For `COc1cc(N)c(Cl)cc1C(=O)CCC1CCN(CCOCCNC(=O)c2cc(C(=O)NCCO)cc(C(=O)NCCO)c2)CC1` [compound 19, N^1-(2-(2-(4-(3-(4-amino-5-chloro-2-methoxyphenyl)-3-oxopropyl)piperidin-1-yl)ethoxy)ethyl)-N^3,N^5-bis(2-hydroxyethyl)benzene-1,3,5-tricarboxamide], on 5-HT4 receptor [3], the inhibition at 1 µM was 55%.

As to `CCCCN1CCC(CCC(=O)c2cc(Cl)c(N)cc2OC)CC1` [RS67333], the inhibition at 1 µM at 5-HT4 receptor [4] is 100%. Also, the Emax in assay [2] was found to be 68%.
